Experimental data as given in patent US11261179B2, “Small molecules” (University of Dundee, priority 2017, dated 2022).

What was measured:
[1] = target: T1, pVHL30 (long isoform of VHL) (Homo sapiens, UniProt P40337); experiment: Western blot of VHL levels in HeLa cells; format: cell-based; conditions: 1 μM, 10 h
T1 construct: endogenous in cells; host or cells: HeLa
Experimental: (§1) For single time point treatment experiments, cells were transferred in 6-well plates with 5×10^5 cells per well in 2 ml media in order to achieve 80% confluence the following day. Stock concentrations of compounds were prepared by solubilizing the powder in 100% v/v DMSO to the final desired stock concentration.
(§2) On the day of treatment, all compound samples were prepared as 100-fold concentrated compound solution using DMEM just before treatment. The experiment samples (20 μL) were added to the 6 well plate containing 2 ml of media. The final DMSO concentration was 0.1% v/v. Cells were incubated at 37° C. and 5% CO2 for the desired time before harvesting.
(§3) For time dependent treatment, cells were transferred in 6-well plates with 3×10^5 cells per well in 2 ml media. Samples were prepared as detailed above or the single time point experiments. Treatment was conducted at given time points prior to harvest.
Cells were transferred in 6-well plates with 5×10^5 cells per well in 2 ml media in order to achieve 80% confluence the day after. At t=0, MLN4924 was added into the desired wells at 3 μM final concentration and 0.1% v/v of DMSO. DMSO (0.1% v/v final conc.) was added to the remaining wells in order to match identical conc. of vehicle in all wells. At t=3 h, MG 132 was added into the desired wells at 50 μM final conc. and 0.1% v/v of DMSO. DMSO (0.1% v/v final conc.) was added to the remaining wells in order to achieve the same conc. of vehicle in all the wells. […] DMSO (0.1% v/v final conc.) was added to the remaining wells in order to obtain the same conc. of vehicle in all the wells. The total final concentration of DMSO was therefore 0.3% v/v. Plates were incubated for 4 h at 37° C. and 5% CO2 before harvesting.
Cells were transferred in 6-well plates with 5×10^5 cells per well in 2 ml media in order to achieve 80% confluence the day after. […] Plates were incubated for the desired time at 37° C. and 5% CO2 before harvesting.
For this experiments, cells were transferred in 6-well plates with 5×10^5 cells per well in 2 ml media in order to achieve 80% confluence the day after. […] Plates were incubated for the desired time at 37° C. and 5% CO2 before harvesting.
(§4) Cells were lysed in lysis buffer (20 mM Tris pH 8, 150 mM NaCl, 1% Triton x100) and a protease inhibitor cocktail (Roche) per 10 ml buffer. For protein extracts, the dishes were placed on ice. The media was aspirated and the tissue layer washed twice with ice-cold phosphate buffer saline (PBS). Lysis buffer (120 μl) was added and the cells detached from the surface with a cell scraper. After removal of the insoluble fraction by centrifugation, the protein concentration of the supernatant was determined by Pierce™ Coomassie (Bradford) Protein Assay Kit. Protein extracts were fractionated by SDS-PAGE on 4-12% Tris-Acetate NuPage® Novex® (Life Technologies) polyacrylamide gels and transferred to a nitrocellulose membrane using wet transfer. The membrane was then blocked with 5% w/v Bovine serum albumin (BSA) in Tris-buffered saline (TBS) with 0.1% w/v Tween-20. For detecting proteins the following primary antibodies in the given concentrations were used: anti-β-Actin (Cell Signaling Technology, 4970S, 13E5) 1:2000, anti-VHL (Cell Signaling Technology, #68547) 1:1000, anti-Hif-1α (BD Biosciences, 610959, clone 54) 1:1000, anti-hydroxy-HIF-1α (Hyp564) (Cell Signaling Techonology; #3434) 1:1000, anti-PHD2 (Bethyl Laboratories; A300-322A) 1:1000, anti-PHD3 (Bethyl Laboratories; A300-327A) 1:1000, anti-CRBN (Proteintech; 11435-1-AP) 1:1000.
(§5) Following incubation with a horseradish peroxidase-conjugated secondary antibody (Cell Signaling Technology), the signal was developed using enhanced chemiluminescence (ECL) Western Blotting Detection Kit (Amersham) on Amersham Hyperfilm ECL film (Amersham).
Band quantification was performed using ImageJ software and reported as relative amount as ratio of the each protein band relative to the lane's loading control. […]

VCB complex = VCB complex (Homo sapiens, UniProt P40337); experiment: Size exclusion chromatography of VCB complex formation; format: binding; conditions: SEC; for shift of VCB peak / ternary complex formation: VCB 50 μM, compound 30 μM
Chain of VCB complex (P40337 54-213 limits assumed): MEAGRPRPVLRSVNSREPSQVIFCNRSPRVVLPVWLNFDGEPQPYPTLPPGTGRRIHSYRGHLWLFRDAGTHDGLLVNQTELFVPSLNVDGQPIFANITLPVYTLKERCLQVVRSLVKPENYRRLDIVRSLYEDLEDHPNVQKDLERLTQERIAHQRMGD
Chain of VCB complex (Q15370 1-104 partner limits assumed): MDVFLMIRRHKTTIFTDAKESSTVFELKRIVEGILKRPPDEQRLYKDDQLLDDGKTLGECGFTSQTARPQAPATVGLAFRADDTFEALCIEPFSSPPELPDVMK
Chain of VCB complex (Q15369 17-112 partner limits assumed): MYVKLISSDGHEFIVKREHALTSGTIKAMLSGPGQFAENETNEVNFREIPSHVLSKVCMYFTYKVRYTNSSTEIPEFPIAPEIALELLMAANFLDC
Experimental: SEC experiments were carried out in a AKTA pure system (GE Healthcare) at room temperature. The oligomeric state of the VCB complex in solution was analyzed by gel filtration in a buffer containing 20 mM Bis-Tris (pH 7), 150 mM NaCl and 1 mM 1,4-dithiothreitol (DTT) using a Superdex 200 Increase 10/300 GL column (GE Healthcare) calibrated with globular proteins of known molecular weight (GE Healthcare, 28-4038-41/42). […] Sample volume for each injection was 200 μL, and the flow rate was 0.5 mL/min. Peak elution was monitored using ultraviolet absorbance at 280 nm.

[2] = target: pVHL19 (VCB complex: VHL with Elongin B and Elongin C) (Homo sapiens, UniProt P40337); experiment: ITC titration against VCB, short VHL isoform; format: binding; conditions: for binding to VCB detected by ITC: ITC against VCB; for Kd / ΔG / ΔH / −TΔS / n (stoichiometry) / α (cooperativity/avidity): ITC; for Kd / ΔG / ΔH / −TΔS / α (cooperativity/avidity): pVHL19; for n (stoichiometry): pVHL19, 25° C.
Chain of pVHL19 (VCB complex: VHL with Elongin B and Elongin C) (P40337 54-213): as the sequence (P40337 54-213 limits assumed) above
Chain of pVHL19 (VCB complex: VHL with Elongin B and Elongin C) (Q15370 1-104 partner limits assumed): as the sequence (Q15370 1-104 partner limits assumed) above
Chain of pVHL19 (VCB complex: VHL with Elongin B and Elongin C) (Q15369 17-112 partner limits assumed): as the sequence (Q15369 17-112 partner limits assumed) above
Experimental: (§6) Titrations were performed on an ITC200 micro-calorimeter (GE Healthcare). […] The final DMSO concentration was 0.15% v/v. VBC protein experiments were carried out in a buffer containing 20 mM Bis-tris propane, 150 mM NaCl, 1 mM TCEP, 0.15% v/v DMSO, pH 7.4. The titrations consisted of 19 injections of 2 μL compounds solution (150 μM, in the syringe) at a rate of 2 s/μL at 120 s time intervals into the VCB protein solution (20 μM, in the cell). An initial injection of compound solution (0.4 μL) was made and discarded during data analysis. All experiments were performed at 25° C., whilst stirring the syringe at 600 rpm. The data were fitted to a single binding site model to obtain the stoichiometry n, the dissociation constant Kd and the enthalpy of binding ΔH using the Microcal LLC ITC200 Origin software provided by the manufacturer.

pVHL30 (VCB complex) = pVHL30 (VCB complex) (Homo sapiens, UniProt P40337); experiment: ITC titration against VCB, long VHL isoform; format: binding
Chain of pVHL30 (VCB complex) (P40337 whole entry, canonical isoform): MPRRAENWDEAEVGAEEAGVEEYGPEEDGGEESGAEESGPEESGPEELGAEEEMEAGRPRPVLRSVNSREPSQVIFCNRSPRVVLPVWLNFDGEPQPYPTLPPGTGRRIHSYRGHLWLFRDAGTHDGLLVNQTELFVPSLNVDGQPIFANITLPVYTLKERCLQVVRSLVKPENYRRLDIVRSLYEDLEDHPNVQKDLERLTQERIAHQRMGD
Chain of pVHL30 (VCB complex) (Q15370 1-104 partner limits assumed): as the sequence (Q15370 1-104 partner limits assumed) above
Chain of pVHL30 (VCB complex) (Q15369 17-112 partner limits assumed): as the sequence (Q15369 17-112 partner limits assumed) above
Experimental: as §6

[3] = test system: HIF-1α / hydroxylated HIF-1α (Hdy-HIF-1α); experiment: Western blot of HIF-1α and Hdy-HIF-1α levels in HeLa cells; format: cell-based, Human
Experimental: as §1, §2, §3, §4, §5
Band quantification was performed using ImageJ software and reported as relative amount as ratio of the each protein band relative to the lane's loading control. The values obtained were then normalized to 0.1% DMSO vehicle control.

T1 sequence (P40337 whole entry, canonical isoform): as the sequence (P40337 whole entry, canonical isoform) above

Row | SMILES | Kd [2] | ΔG [2] | ΔH [2] | −TΔS [2] | n (stoichiometry) [2] | α (cooperativity/avidity) [2] | further results
1 | Cc1ncsc1-c1ccc(CNC(=O)[C@@H]2C[C@H](O)CN2C(=O)[C@@H](NC(=O)COCCOCCOCCOCCOCCOCC(=O)N[C@H](C(=O)N2C[C@@H](O)C[C@H]2C(=O)NCc2ccc(-c3scnc3C)cc2)C(C)(C)C)C(C)(C)C)cc1 [CMP98, N^1,N^20-bis((S)-1-((2S,4S)-4-hydroxy-2-((4-(4-methylthiazol-5-yl)benzyl)carbamoyl)pyrrolidin-1-yl)-3,3-dimethyl-1-oxobutan-2-yl)-3,6,9,12,15,18-hexaoxaicosanediamide] | – | – | – | – | – | – | depletion/degradation of VHL (pVHL30) [1]: unable to induce degradation of VHL; shift of VCB peak / ternary complex formation (VCB complex): no shift; binding to VCB detected by ITC [2]: binding was not detected
2 | Cc1ncsc1-c1ccc(CNC(=O)[C@H]2C[C@@H](O)CN2C(=O)[C@H](NC(=O)COCCOCCOCCOCCOCC(=O)N[C@H](C(=O)N2C[C@H](O)C[C@H]2C(=O)NCc2ccc(-c3scnc3C)cc2)C(C)(C)C)C(C)(C)C)cc1 [CMP99, N^1—((R)-1-((2R,4R)-4-hydroxy-2-((4-(4-methylthiazol-5-yl)benzyl)carbamoyl)pyrrolidin-1-yl)-3,3-dimethyl-1-oxobutan-2-yl)-N^17—((S)-1-((2S,4R)-4-hydroxy-2-((4-(4-methylthiazol-5-yl)benzyl)carbamoyl)pyrrolidin-1-yl)-3,3-dimethyl-1-oxobutan-2-yl)-3,6,9,12,15-pentaoxaheptadecanediamide] | 146 ± 2 nM | -9.33 ± 0.06 kcal/mol | -6.23 ± 0.05 kcal/mol | -3.1 ± 0.7 kcal/mol | 0.964 ± 0.005 | – | depletion/degradation of VHL (pVHL30) [1]: unable to induce degradation of VHL; Kd (pVHL30 (VCB complex)): 106 ± 10 nM; n (stoichiometry) (pVHL30 (VCB complex)): 1.050 ± 0.004; ΔG (pVHL30 (VCB complex)): -9.51 ± 0.05 kcal/mol; ΔH (pVHL30 (VCB complex)): -5.19 ± 0.03 kcal/mol; −TΔS (pVHL30 (VCB complex)): -4.3 ± 0.1 kcal/mol; elution volume of small peak (VCB complex): 13.5 mL; shift of VCB peak / ternary complex formation (VCB complex): no shift
3 | CC(=O)N[C@H](C(=O)N1C[C@H](O)C[C@H]1C(=O)NCc1ccc(-c2scnc2C)cc1OCCOCCOCCOCCOCCOc1cc(-c2scnc2C)ccc1CNC(=O)[C@@H]1C[C@@H](O)CN1C(=O)[C@@H](NC(C)=O)C(C)(C)C)C(C)(C)C [CMP106, (2S,2′S,4R,4′R)—N,N′-((((3,6,9,12-tetraoxatetradecane-1,14-diyl)bis(oxy))bis(4-(4-methylthiazol-5-yl)-2,1-phenylene))bis(methylene))bis(1-((S)-2-acetamido-3,3-dimethylbutanoyl)-4-hydroxypyrrolidine-2-carboxamide)] | 111 ± 8 nM | -9.5 kcal/mol | -12.6 ± 0.1 kcal/mol | 3.1 kcal/mol | 0.535 ± 0.004 | 1.7 | –
4 | Cc1ncsc1-c1ccc(CNC(=O)[C@@H]2C[C@@H](O)CN2C(=O)[C@@H](NC(=O)C2(C#N)CC2)C(C)(C)C)c(OCCOCCOCCOCCOCCOc2cc(-c3scnc3C)ccc2CNC(=O)[C@@H]2C[C@@H](O)CN2C(=O)[C@@H](NC(=O)C2(C#N)CC2)C(C)(C)C)c1 [CMP108, (2S,2′S,4R,4′R)—N,N′-((((3,6,9,12-tetraoxatetradecane-1,14-diyl)bis(oxy))bis(4-(4-methylthiazol-5-yl)-2,1-phenylene))bis(methylene))bis(1-((S)-2-(1-cyanocyclopropane-1-carboxamido)-3,3-dimethylbutanoyl)-4-hydroxypyrrolidine-2-carboxamide)] | – | – | – | – | – | – | binding to VCB detected by ITC [2]: data could not be fitted to a binding curve
5 | CC(=O)N[C@H](C(=O)N1C[C@H](O)C[C@H]1C(=O)NCc1ccc(-c2scnc2C)cc1OCCOCCOCCOCCOCCOCC(=O)N[C@H](C(=O)N1C[C@H](O)C[C@H]1C(=O)NCc1ccc(-c2scnc2C)cc1)C(C)(C)C)C(C)(C)C [CMP112, (2S,4R)-1-((S)-2-acetamido-3,3-dimethylbutanoyl)-4-hydroxy-N-(2-(((S)-19-((2S,4R)-4-hydroxy-2-((4-(4-methylthiazol-5-yl)benzyl)carbamoyl)pyrrolidine-1-carbonyl)-20,20-dimethyl-17-oxo-3,6,9,12,15-pentaoxa-18-azahenicosyl)oxy)-4-(4-methylthiazol-5-yl)benzyl)pyrrolidine-2-carboxamide] | 235 ± 22 nM | -9.1 kcal/mol | -14.8 ± 0.2 kcal/mol | 5.8 kcal/mol | 0.498 ± 0.006 | 0.8 | –
6 | Cc1ncsc1-c1ccc(CNC(=O)[C@@H]2C[C@@H](O)CN2C(=O)[C@@H](NC(=O)COCCOCCOCCOCCOCCOc2cc(-c3scnc3C)ccc2CNC(=O)[C@@H]2C[C@@H](O)CN2C(=O)[C@@H](NC(=O)C2(C#N)CC2)C(C)(C)C)C(C)(C)C)cc1 [CMP113, (2S,4R)-1-((S)-2-(tert-butyl)-20-(2-(((2S,4R)-1-((S)-2-(1-cyanocyclopropane-1-carboxamido)-3,3-dimethylbutanoyl)-4-hydroxypyrrolidine-2-carboxamido)methyl)-5-(4-methylthiazol-5-yl)phenoxy)-4-oxo-6,9,12,15,18-pentaoxa-3-azaicosanoyl)-4-hydroxy-N-(4-(4-methylthiazol-5-yl)benzyl)pyrrolidine-2-carboxamide] | 117 ± 25 nM | -9.5 kcal/mol | -6.4 ± 0.2 kcal/mol | -3.1 kcal/mol | 0.934 ± 0.005 | 1.7 | –
7 | CC(=O)N[C@H](C(=O)N1C[C@H](O)C[C@H]1C(=O)NCc1ccc(-c2scnc2C)cc1)C(C)(C)C [VH032, reference compound] | – | – | – | – | – | – | protein levels of Hdy-HIF-1α ([3]; HeLa, 1 μM, 10 h): completely ineffective; concentration at which active in cells ([3]; cells): ~100 µM
